From patent US8518412B2, “Partial peptide of lacritin” (Senju Pharmaceutical Co, Ltd., priority 2009, dated 2013)
Non-standard residues stand in square brackets, D forms with d. No end group written: not given here. pGlu = O=C1CC[C@@H](C(=O)O)N1

Tested on: human corneal epithelial cells (HCE-T)
Test: Adhesion of human corneal epithelial cell to extracellular matrix (collagen type IV coated plate)
Format: cell-based
Details: polypeptide 100 μg/mL, 37° C. 25 min
Method: An extracellular matrix solution (10 μg/mL, collagen type IV: Becton, Dickinson and Company, catalog No. 354245) was added to a 96 well plate (Iwaki Glass Company, Limited, catalog No. 3860-096). The solution was incubated at 37° C. for 1 hr to coat the plate with the extracellular matrix. After the redundant extracellular matrix solution was removed, 0.1% BSA solution (Sigma-Aldrich Co., catalog No. A3803) was added to block the region not coated with the extracellular matrix. Successively, the BSA solution was removed and the plate was washed twice with PBS, and polypeptides 1-4 (concentration 100 μg/mL) synthesized in Example 1 (Pyr Lac50-83) and Comparative Examples 1-3 (Lac50-83, Pyr Lac50-94, Lac50-94), and negative control polypeptide (Lac24-56, Lac50-65) were added by 50 μl, per well. […]
Thereafter, the cells were fixed with 10% neutral buffered formaldehyde liquid (NACALAI TESQUE, INC., catalog No. 37152-51), and stained with 1% crystal violet staining solution (Sigma-Aldrich Co., catalog No. C3886). The image of the stained cells was uploaded using an inverted system microscope (Olympus Corporation, IX71), and the area of the adhered cells was measured using Image-Pro Plus Ver. […]

Row | Substance | cell adhesion promoting effect (cell adhesion rate against that without addition of polypeptide as 100%)
1 | Pyr Gly Thr Ala Lys Val Thr Ser Ser Arg Gln Glu Leu Asn Pro Leu Lys Ser Ile Val Glu Lys Ser Ile Leu Leu Thr Glu Gln Ala Leu Ala Lys Ala Gly Lys Gly Met His Gly Gly Val Pro Gly Gly ([pGlu]GTAKVTSSRQELNPLKSIVEKSILLTEQALAKAGKGMHGGVPGG; listed as Homo sapiens) [polypeptide 3] | lowered activity as compared to that of polypeptide before pyro-modification
2 | Pyr Gly Thr Ala Lys Val Thr Ser Ser Arg Gln Glu Leu Asn Pro Leu Lys Ser Ile Val Glu Lys Ser Ile Leu Leu Thr Glu Gln Ala Leu Ala Lys Ala ([pGlu]GTAKVTSSRQELNPLKSIVEKSILLTEQALAKA; listed as Homo sapiens) [polypeptide 1, pyro-modified partial peptide of lacritin] | confirmed to have an activity to promote cell adhesion
